Where a name gives a salt, the structure may show the parent alone.

The target of the first test is CDK2/CCNE1 (Homo sapiens, UniProt P24941). As to the kind of experiment: CDK2 homogeneous time-resolved fluorescence (HTRF) assay. The following applies: 3 nM CDK2/CCNE1, 1 mM ATP, 50 nM ULight-eIF4E-binding protein 1 (Thr37/46) peptide, 60 min at 23° C.; read-out: CDK2/CCNE IC50 <25 nM. In kind it is biochemical. The method, then:
A CDK homogeneous time-resolved fluorescence (HTRF) assay was used to assess the potency of the compounds described herein.
To an untreated 384-well microtiter plate (ProxiPlate) was added 100 nL 100× test compound in DMSO and 5 μL 2×CDK enzyme in assay buffer (50 mM HEPES, 1 mM EGTA, 10 mM MgCl2, 0.01% Tween 20, 2 mM DTT). The plate was centrifuged at 800 RPM for 1 min then incubated for 20 min at 23° C. 2.5 μL per well of 4×ATP and 2.5 μL 4×ULight™-eIF4E-binding protein 1 (Thr37/46) Peptide) substrate were added to all wells. After addition, the plates were centrifuged at 800 RPM for 1 min. The plates were incubated at 23° C. for 60 min. 5 μL per well 3×EDTA solution were added to each well to stop the reaction. 2.5 μL 7×LANCE Ultra Europium-anti-phospho-eTF4E-binding protein 1 (Thr37/46 antibody) were added to each well and the plate was centrifuged for 1 min at 800 RPM. The plate was incubated for 60 min at 23° C. Fluorescence was read at 340 nm excitation and 665 nm emission on an EnVision 2105 fluorescence reader. The final concentrations of reagents in the activity assay were 3 nM CDK2/CCNE1, 1 mM ATP, 50 nM ULight™-eIF4E-binding protein 1 (Thr37/46) Peptide substrate, 1% DMSO, 10 mM EDTA, and 2 nM LANCE Ultra Europium-anti-phospho-eTF4E-binding protein 1 (Thr37/46).
Dose-response titrations were conducted by using an 11-point, three-fold serial dilution scheme typically starting at 1 μM. Signals were reported as fluorescence units at 665 nm or the ratio of fluorescence units at 665 nm/fluorescence units at 615 nm. Signals are referred to below as “Lance signals”.
Using this assay, the IC50 values of example compounds were determined.
On to `CS(=O)(=O)c1ccc(Nc2ncc3cnn(C4CCC(C#N)CC4)c3n2)cc1` (single isomer, unassigned) [Compound 32, 4-(6-((4-(methylsulfonyl)phenyl)amino)-1H-pyrazolo[3,4-d]pyrimidin-1-yl)cyclohexane-1-carbonitrile], for which the IC50 was < 25 nM. Still for that read-out and setting: next, `C=CS(=O)(=O)N1CCC(Nc2ncc3cnn(CC4CCCCC4)c3n2)CC1` [Compound 1, 1-(cyclohexylmethyl)-N-(1-(vinylsulfonyl)piperidin-4-yl)-1H-pyrazolo[3,4-d]pyrimidin-6-amine]: < 25 nM. The same measure, in the same setting: next, `CS(=O)(=O)N1CCC(Nc2ncc3cnn(CC4CCCCC4)c3n2)CC1` [Compound 2, 1-(cyclohexylmethyl)-N-(1-(methylsulfonyl)piperidin-4-yl)-1H-pyrazolo[3,4-d]pyrimidin-6-amine]: < 25 nM.

Still in this test, the particulars now being: 3 nM CDK2/CCNE1, 1 mM ATP, 50 nM ULight-eIF4E-binding protein 1 (Thr37/46) peptide, 60 min at 23° C.; read-out: CDK2/CCNE IC50 >150 nM.
`CC(c1cccnn1)n1ncc2cnc(Nc3ccc(S(C)(=O)=O)cc3)nc21` (single isomer, unassigned) [Compound 77, N-(4-(methylsulfonyl)phenyl)-1-(1-(pyridazin-3-yl)ethyl)-1H-pyrazolo[3,4-d]pyrimidin-6-amine]: the IC50 is > 150 nM. On the same count and under the same terms, next, `CS(=O)(=O)c1ccc(Nc2ncc3cnn(CC4CCC(N5CCC5)CC4)c3n2)cc1` (single isomer, unassigned; stereoisomer a) [Compound 60, 1-((4-(azetidin-1-yl)cyclohexyl)methyl)-N-(4-(methylsulfonyl)phenyl)-1H-pyrazolo[3,4-d]pyrimidin-6-amine (stereoisomer A)]: > 150 nM; `CS(=O)(=O)c1ccc(Nc2ncc3cnn(CC4CCC(N5CC(O)C5)CC4)c3n2)cc1` (single isomer, unassigned; stereoisomer a) [Compound 64, 1-(4-((6-((4-(methylsulfonyl)phenyl)amino)-1H-pyrazolo[3,4-d]pyrimidin-1-yl)methyl)cyclohexyl)azetidin-3-ol (stereoisomer A)]: > 150 nM; `CS(=O)(=O)c1ccc(Nc2ncc3cnn(CC4CCC(N5CC(C#N)C5)CC4)c3n2)cc1` (single isomer, unassigned; stereoisomer a) [Compound 65, 1-(4-((6-((4-(methylsulfonyl)phenyl)amino)-1H-pyrazolo[3,4-d]pyrimidin-1-yl)methyl)cyclohexyl)azetidine-3-carbonitrile (stereoisomer A)]: > 150 nM. With `CS(=O)(=O)c1ccc(Nc2ncc3cnn(CC4CCC(N5CC[C@H](C#N)C5)CC4)c3n2)cc1` (single isomer, unassigned; stereoisomer a) [Compound 69], the IC50 is > 150 nM. For the compound `CS(=O)(=O)c1ccc(Nc2ncc3cnn(CC4CCC(N5CC[C@@H](C#N)C5)CC4)c3n2)cc1` (single isomer, unassigned; stereoisomer a) [Compound 71], the IC50 is > 150 nM.

On to `CS(=O)(=O)c1ccc(Nc2ncc3cnn(CC4CCC(N5CC[C@@H](O)C5)CC4)c3n2)cc1` (single isomer, unassigned; stereoisomer a) [Compound 73], for which the IC50 is > 150 nM. Same read-out and setting: next, `CS(=O)(=O)c1ccc(Nc2ncc3cnn(CC4CCC(N5CC[C@H](O)C5)CC4)c3n2)cc1` (single isomer, unassigned; stereoisomer a) [Compound 74]: > 150 nM; `CS(=O)(=O)c1ccc(Nc2ncc3cnn(CC4CCC(N5CCCC5)CC4)c3n2)cc1` (single isomer, unassigned; stereoisomer b) [Compound 59, N-(4-(methylsulfonyl)phenyl)-1-((4-(pyrrolidin-1-yl)cyclohexyl)methyl)-1H-pyrazolo[3,4-d]pyrimidin-6-amine (stereoisomer B)]: > 150 nM.

For `CS(=O)(=O)c1ccc(Nc2ncc3cnn(Cc4ccccc4)c3n2)cc1` [Compound 4, 1-benzyl-N-(4-(methylsulfonyl)phenyl)-1H-pyrazolo[3,4-d]pyrimidin-6-amine], the IC50 is > 150 nM. On the same count and under the same terms, next, `CS(=O)(=O)c1ccc(Nc2ncc3cnn(Cc4cccnc4)c3n2)cc1` [Compound 5, N-(4-(methylsulfonyl)phenyl)-1-(pyridine-3-ylmethyl)-1H-pyrazolo[3,4-d]pyrimidin-6-amine]: > 150 nM; `CS(=O)(=O)c1ccc(Nc2ncc3cnn(CC4CCNCC4)c3n2)cc1` [Compound 7, N-(4-(methylsulfonyl)phenyl)-1-(piperidin-4-ylmethyl)-1H-pyrazolo[3,4-d]pyrimidin-6-amine hydrochloride]: > 150 nM. On the same count and under the same terms, next, `C=CS(=O)(=O)c1ccc(Nc2ncc3cn[nH]c3n2)cc1` [Compound 9, N-(4-(vinylsulfonyl)phenyl)-1H-pyrazolo[3,4-d]pyrimidin-6-amine]: > 150 nM; `C=CS(=O)(=O)c1ccc(Nc2ncc3cnn(C)c3n2)cc1` [Compound 10, 1-methyl-N-(4-(vinylsulfonyl)phenyl)-1H-pyrazolo[3,4-d]pyrimidin-6-amine]: > 150 nM.

The test is the same for the next values; noted with them: column 25-150 nM; 3 nM CDK2/CCNE1, 1 mM ATP, 50 nM ULight-eIF4E-binding protein 1 (Thr37/46) peptide, 60 min at 23° C.; read-out: CDK2/CCNE IC50 25-150 nM.
As to `CS(=O)(=O)c1ccc(Nc2ncc3cnn(CC4CCC(C#N)CC4)c3n2)cc1` (single isomer, unassigned) [Compound 28, 4-((6-((4-(methylsulfonyl)phenyl)amino)-1H-pyrazolo[3,4-d]pyrimidin-1-yl)methyl)cyclohexane-1-carbonitrile], the IC50 was in the range of 25 to 150 nM.

On to `CS(=O)(=O)c1ccc(Nc2ncc3cnn([C@H]4CC[C@H](O)CC4)c3n2)cc1` (single isomer, unassigned) [Compound 54], for which the IC50 lay within 25 to 150 nM. On the same count and under the same terms, next, `CS(=O)(=O)c1ccc(Nc2ncc3cnn(-c4ccc(C#N)cc4)c3n2)cc1` (single isomer, unassigned) [Compound 68, 4-(6-((4-(methylsulfonyl)phenyl)amino)-1H-pyrazolo[3,4-d]pyrimidin-1-yl)benzonitrile]: 25 to 150 nM; `CS(=O)(=O)c1ccc(Nc2ncc3cn(-c4ccc(C#N)cc4)nc3n2)cc1` (single isomer, unassigned) [Compound 83, 4-(6-((4-(methylsulfonyl)phenyl)amino)-2H-pyrazolo[3,4-d]pyrimidin-2-yl)benzonitrile]: 25 to 150 nM. As for `CS(=O)(=O)c1ccc(Nc2ncc3cnn(CC4CCC(N5CCCC5)CC4)c3n2)cc1` (single isomer, unassigned; stereoisomer a) [Compound 58, N-(4-(methylsulfonyl)phenyl)-1-((4-(pyrrolidin-1-yl)cyclohexyl)methyl)-1H-pyrazolo[3,4-d]pyrimidin-6-amine (stereoisomer A)], the IC50 was in the range of 25 to 150 nM. Still for that read-out and setting: next, `CS(=O)(=O)c1ccc(Nc2ncc3cnn(C4CCOCC4)c3n2)cc1` [Compound 3, N-(4-(methylsulfonyl)phenyl)-1-(tetrahydro-2H-pyran-4-yl)-1H-pyrazolo[3,4-d]pyrimidin-6-amine]: 25 to 150 nM; `CS(=O)(=O)c1ccc(Nc2ncc3cnn(C[C@H]4CC[C@@H](N)CC4)c3n2)cc1` [Compound 6, 1-(((1S,4S)-4-aminocyclohexyl)methyl)-N-(4-(methylsulfonyl)phenyl)-1H-pyrazolo[3,4-d]pyrimidin-6-amine]: 25 to 150 nM. Same read-out and setting: next, `C=CS(=O)(=O)c1ccc(Nc2ncc3cnn(CC4CCCCC4)c3n2)cc1` [Compound 8, 1-(cyclohexylmethyl)-N-(4-(vinylsulfonyl)phenyl)-1H-pyrazolo[3,4-d]pyrimidin-6-amine]: 25 to 150 nM; `CS(=O)(=O)c1ccc(Nc2ncc3cnn(C[C@H]4CC[C@H](CO)CC4)c3n2)cc1` [Compound 11, ((1r,4r)-4-((6-((4-(methylsulfonyl)phenyl)amino)-1H-pyrazolo[3,4-d]pyrimidin-1-yl)methyl)cyclohexyl)methanol]: 25 to 150 nM; `CS(=O)(=O)c1ccc(Nc2ncc3cnn(CC4CCCCC4)c3n2)cc1` [Compound 12, 1-(cyclohexylmethyl)-N-(4-(methylsulfonyl)phenyl)-1H-pyrazolo[3,4-d]pyrimidin-6-amine]: 25 to 150 nM. Still for that read-out and setting: the figure for `CS(=O)(=O)c1ccc(Nc2ncc3cnn(CC4CCCC4)c3n2)cc1` [Compound 13, 1-(cyclopentylmethyl)-N-(4-(methylsulfonyl)phenyl)-1H-pyrazolo[3,4-d]pyrimidin-6-amine] is 25 to 150 nM; for `CS(=O)(=O)c1ccc(Nc2ncc3cnn(C4CCNCC4)c3n2)cc1` [Compound 14, N-(4-(methylsulfonyl)phenyl)-1-(piperidin-4-yl)-1H-pyrazolo[3,4-d]pyrimidin-6-amine] it is 25 to 150 nM.
